Source: patent US20250093263A1, “FRET-BASED ASSAYS” (The General Hospital Corporation, priority 2021, published 2025)
Several values for one entry are separate records, joined by “and”; a condition that tells them apart may be missing. Identical values can stand only once. Like-named read-outs stand apart in the source and are kept apart here.

Experiments:
[1] = pH 7.4, 1-octanol / sodium phosphate buffer
[2] = molecular target: T1, MtbPheRS (Mycobacterium tuberculosis phenylalanyl-tRNA synthetase) (Mycobacterium tuberculosis, UniProt P9WFU3); assay: PheRS activity-based assay, MtbPheRS; format: biochemical
T1 construct: made in house; host or cells: Mycobacterium

[3] = molecular target: T2, WT Keap1 (tag-free, full-length) (Homo sapiens, UniProt Q14145); assay: Keap1 TR-FRET Assay 2 (CDDO-FITC/Cora-1-KL9)
[4] = molecular target: T2, WT Keap1 (tag-free, full-length); assay: biochemical; settings: read-out: Assay 1: % at 100
[5] = molecular target: T3, Keap1 (His/GST) (Homo sapiens, UniProt Q14145); assay: biochemical
[6] = molecular target: T3, Keap1 (His/GST); assay: Keap1 TR-FRET Assay 3 (CDDO-FITC/Tb-Anti-6xHis); format: binding
[7] = molecular target: T2, WT Keap1 (tag-free, full-length); assay: biochemical
[8] = molecular target: T4, HscPheRS (human cytoplasmic phenylalanyl-tRNA synthetase) (Homo sapiens, UniProt Q9Y285); assay: PheRS activity-based assay, HscPheRS; format: biochemical
T4 construct: made in house; host or cells: E. coli
T4 sequence (Q9Y285 1-508): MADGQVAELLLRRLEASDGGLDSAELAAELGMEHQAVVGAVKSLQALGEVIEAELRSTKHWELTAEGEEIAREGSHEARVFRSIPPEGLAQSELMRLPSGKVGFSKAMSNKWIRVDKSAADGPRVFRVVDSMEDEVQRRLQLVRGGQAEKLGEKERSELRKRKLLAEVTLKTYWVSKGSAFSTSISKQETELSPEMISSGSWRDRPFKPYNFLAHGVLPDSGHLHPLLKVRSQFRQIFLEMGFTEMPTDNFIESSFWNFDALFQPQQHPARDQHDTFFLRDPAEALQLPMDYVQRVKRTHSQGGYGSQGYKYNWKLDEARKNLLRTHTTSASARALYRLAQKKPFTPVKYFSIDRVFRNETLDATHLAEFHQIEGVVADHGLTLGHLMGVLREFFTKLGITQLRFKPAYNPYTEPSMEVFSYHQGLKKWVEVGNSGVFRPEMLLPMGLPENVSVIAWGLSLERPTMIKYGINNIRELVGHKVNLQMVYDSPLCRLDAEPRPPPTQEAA
T4 sequence (Q9NSD9 1-589 partner): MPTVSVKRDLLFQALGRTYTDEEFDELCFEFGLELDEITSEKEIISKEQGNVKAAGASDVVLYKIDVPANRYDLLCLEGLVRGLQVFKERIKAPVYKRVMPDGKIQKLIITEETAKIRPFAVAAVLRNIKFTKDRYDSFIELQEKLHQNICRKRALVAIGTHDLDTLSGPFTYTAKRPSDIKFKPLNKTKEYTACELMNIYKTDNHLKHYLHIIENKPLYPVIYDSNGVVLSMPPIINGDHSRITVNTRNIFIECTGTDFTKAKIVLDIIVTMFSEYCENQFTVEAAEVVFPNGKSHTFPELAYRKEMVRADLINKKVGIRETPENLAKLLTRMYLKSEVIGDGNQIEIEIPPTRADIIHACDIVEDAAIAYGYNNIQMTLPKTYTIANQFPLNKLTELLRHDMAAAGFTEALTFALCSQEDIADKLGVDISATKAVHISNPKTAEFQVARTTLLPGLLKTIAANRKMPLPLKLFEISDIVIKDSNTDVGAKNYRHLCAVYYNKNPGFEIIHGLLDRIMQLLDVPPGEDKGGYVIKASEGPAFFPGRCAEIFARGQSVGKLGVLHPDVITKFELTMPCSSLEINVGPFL

[9] = molecular target: T5, HsGluProRS (Homo sapiens, UniProt P07814); assay: HsGluProRS TR-FRET in HEK293 lysate; format: binding; settings: 250 nM tracer, serially diluted HEK293T lysate, anti-HsGluProRS antibodies
T5 construct: assay was developed utilizing native proteins in cell lysate or intact cells; endogenous in cells
From the text: Freshly prepared HEK293 cell lysates were serial diluted into flat-bottom, white 384-well plates (Corning 3572).
Abcam ab31531 was raised against an Abcam-proprietary, recombinant, full-length HsGluProRS protein. Proteintech 67712-1-Ig was raised against a peptide encoding HsGluProRS residues 1163-1512. Cell Signaling Technology CST45956 was raised against a peptide encoding residues surrounding HsGluProRS^P978. CTK0101 (ChromTek) anti-Rabbit-IgG secondary nanobody (single domain nanobody) was previously labeled with CoraFluor-1-Pfp and validated to bind Rabbit IgG antibodies with high affinity.
For the TR-FRET assay, HEK293T lysate was serially diluted into 384-well plates containing constant concentrations of tracer (either 250 nM MAT574 for ProRS or 250 nM MAT579 for GluRS), one of the antibodies (5 nM), and for the unlabeled antibodies, CoraFluor-1-Pfp labeled nano secondary (20 nM).

[10] = molecular target: T6, PfcProRS (Plasmodium falciparum, UniProt Q8I5R7); assay: biochemical; format: binding; settings: PfcProRS KD, absence of substrates (0 μM ATP)
T6 construct: made in house; host or cells: SoluBL-21 E. coli
Protocol: (§1) A stock solution containing CoraFluor-1-Halo-labeled HT-PfcProRS or CoraFluor-1-Halo-labeled HT-HsProRS at the concentration specified for each experiment was prepared in assay buffer (50 mM Tris, pH 7.5, 20 mM KCl, 10 mM MgCl2, 0.05% Tween-20, 1 mM dithiothreitol, and 0.5 mg/mL BSA). […] Plates were mixed on an Ika MTS 2/4 Digital Microtiter Shaker at 750 rpm for 2 min, centrifuged at 1,000×g at 25° C. for 1 min. and allowed to equilibrate at room temperature for 2 h before TR-FRET measurements were taken. […] PRISM 9 (GraphPad) was used to perform non-linear regression analysis (one site—specific binding), plot dose-response curves, and calculate KD values.
(§2) A Multidrop Combi Reagent Dispenser (ThermoFisher Scientific) was used to dispense 20 μL of 2× protein solution into each well. […] Plates were mixed on an Ika MTS 2/4 Digital Microtiter Shaker at 750 rpm for 2 min, centrifuged at 1,000×g at 25° C. for I min, and allowed to equilibrate for 2 h at room temperature before TR-FRET measurements were taken.
(§3) PRISM 9 (GraphPad) was used to perform non-linear regression analysis (log(inhibitor) vs. response—Variable slope (four parameters)), plot dose-response curves, and calculate iC50 values.
(§4) Test compounds were dispensed in duplicate, triplicate, or sextuplicate dose-response format using a D300 digital dispenser (Hewlett Packard). […] Plates were mixed on an Ika MTS 2/4 Digital Microtiter Shaker at 750 rpm for 2 min, centrifuged at 1,000×g at 25° C. for 1 min, and allowed to equilibrate for 2 h at room temperature.
(§5) GraphPad PRISM was used to perform non-linear regression (log(inhibitor) vs. response—Variable slope (four parameters)), plot dose-response curves, and calculate IC50 values.
(§6) This assay was generally conducted in the same manner as the CoraFluor-1-Halo format with minor differences. […] Each well was supplemented with 1 nM CoraFluor-1-Pfp-labeled anti-His6 antibody before the 2 h incubation.
(§7) TR-FRET measurements were acquired in kinetic mode (1 read every ˜45 s) for at least 10 min.

[11] = molecular target: T7, HsProRS (Homo sapiens, UniProt P07814); assay: TR-FRET ProRS ligand displacement / saturation binding assay, HsProRS; settings: absence of substrates; read-out: HsProRS (KD [nM]) −
T7 construct: made in house; host or cells: SoluBL-21 E. coli
T7 sequence (P07814 996-1512): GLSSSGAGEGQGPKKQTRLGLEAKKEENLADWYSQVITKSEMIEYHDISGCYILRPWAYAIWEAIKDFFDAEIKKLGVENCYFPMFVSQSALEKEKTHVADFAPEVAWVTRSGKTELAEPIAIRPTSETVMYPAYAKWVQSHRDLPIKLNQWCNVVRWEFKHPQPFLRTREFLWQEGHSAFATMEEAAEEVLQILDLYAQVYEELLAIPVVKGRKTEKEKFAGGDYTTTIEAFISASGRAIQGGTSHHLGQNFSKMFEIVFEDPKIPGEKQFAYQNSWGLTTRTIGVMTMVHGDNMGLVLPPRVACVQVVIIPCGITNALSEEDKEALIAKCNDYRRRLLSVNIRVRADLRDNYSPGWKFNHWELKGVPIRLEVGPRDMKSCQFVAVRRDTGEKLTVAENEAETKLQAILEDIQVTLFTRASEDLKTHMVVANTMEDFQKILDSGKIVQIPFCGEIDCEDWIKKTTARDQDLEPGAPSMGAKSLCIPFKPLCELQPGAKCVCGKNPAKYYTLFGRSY
Protocol: as §1, §2, §3, §4, §5, §6, §7

T2 sequence (Q14145 whole entry): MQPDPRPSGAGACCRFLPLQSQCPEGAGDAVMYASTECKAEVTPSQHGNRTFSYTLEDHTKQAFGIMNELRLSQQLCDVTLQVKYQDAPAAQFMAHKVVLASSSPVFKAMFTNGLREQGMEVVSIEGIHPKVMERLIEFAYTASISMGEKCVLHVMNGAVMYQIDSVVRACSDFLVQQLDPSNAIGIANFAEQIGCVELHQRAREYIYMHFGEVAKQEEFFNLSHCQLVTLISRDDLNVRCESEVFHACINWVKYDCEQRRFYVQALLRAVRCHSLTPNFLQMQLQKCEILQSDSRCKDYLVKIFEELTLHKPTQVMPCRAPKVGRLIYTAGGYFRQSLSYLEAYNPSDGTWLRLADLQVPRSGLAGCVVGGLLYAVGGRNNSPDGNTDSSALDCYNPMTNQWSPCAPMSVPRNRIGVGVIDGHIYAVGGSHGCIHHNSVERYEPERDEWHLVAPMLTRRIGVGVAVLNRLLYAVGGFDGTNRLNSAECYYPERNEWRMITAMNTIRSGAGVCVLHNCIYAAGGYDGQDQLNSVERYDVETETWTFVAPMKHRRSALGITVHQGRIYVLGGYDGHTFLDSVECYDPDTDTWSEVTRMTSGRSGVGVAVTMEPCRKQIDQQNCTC
T1 sequence (P9WFU3 whole entry): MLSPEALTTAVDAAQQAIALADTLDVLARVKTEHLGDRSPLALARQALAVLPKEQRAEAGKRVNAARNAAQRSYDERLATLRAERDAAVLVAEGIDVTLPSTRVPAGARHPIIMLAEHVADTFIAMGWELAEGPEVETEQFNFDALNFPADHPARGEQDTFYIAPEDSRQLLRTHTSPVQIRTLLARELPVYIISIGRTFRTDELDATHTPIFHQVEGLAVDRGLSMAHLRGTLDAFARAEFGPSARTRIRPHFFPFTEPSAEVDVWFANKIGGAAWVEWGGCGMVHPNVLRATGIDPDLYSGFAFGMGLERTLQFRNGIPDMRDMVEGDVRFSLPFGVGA
T1 sequence (P9WFU1 whole entry, further chain): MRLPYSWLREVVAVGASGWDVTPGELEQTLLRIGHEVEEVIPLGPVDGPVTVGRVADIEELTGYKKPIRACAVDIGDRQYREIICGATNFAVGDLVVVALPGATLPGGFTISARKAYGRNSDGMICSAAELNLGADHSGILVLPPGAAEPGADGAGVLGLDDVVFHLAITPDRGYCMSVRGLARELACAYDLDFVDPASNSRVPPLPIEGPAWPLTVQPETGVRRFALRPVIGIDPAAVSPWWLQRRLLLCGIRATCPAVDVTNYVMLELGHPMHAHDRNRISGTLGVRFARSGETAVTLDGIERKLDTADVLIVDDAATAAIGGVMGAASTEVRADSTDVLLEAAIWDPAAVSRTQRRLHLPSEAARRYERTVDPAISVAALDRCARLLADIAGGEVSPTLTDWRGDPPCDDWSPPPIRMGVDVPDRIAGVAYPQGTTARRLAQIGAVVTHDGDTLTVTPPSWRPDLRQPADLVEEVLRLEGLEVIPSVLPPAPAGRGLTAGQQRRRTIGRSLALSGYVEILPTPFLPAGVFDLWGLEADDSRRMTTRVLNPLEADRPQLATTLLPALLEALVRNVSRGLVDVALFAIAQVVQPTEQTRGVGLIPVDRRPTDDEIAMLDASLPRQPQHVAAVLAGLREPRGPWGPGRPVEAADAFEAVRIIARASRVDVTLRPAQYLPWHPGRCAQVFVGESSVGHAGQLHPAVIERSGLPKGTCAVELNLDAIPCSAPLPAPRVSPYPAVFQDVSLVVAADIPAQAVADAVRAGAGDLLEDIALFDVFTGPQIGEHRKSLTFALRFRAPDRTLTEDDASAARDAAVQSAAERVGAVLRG
T3 sequence (Q14145 whole entry): as the sequence (Q14145 whole entry) above
T5 sequence (P07814 whole entry): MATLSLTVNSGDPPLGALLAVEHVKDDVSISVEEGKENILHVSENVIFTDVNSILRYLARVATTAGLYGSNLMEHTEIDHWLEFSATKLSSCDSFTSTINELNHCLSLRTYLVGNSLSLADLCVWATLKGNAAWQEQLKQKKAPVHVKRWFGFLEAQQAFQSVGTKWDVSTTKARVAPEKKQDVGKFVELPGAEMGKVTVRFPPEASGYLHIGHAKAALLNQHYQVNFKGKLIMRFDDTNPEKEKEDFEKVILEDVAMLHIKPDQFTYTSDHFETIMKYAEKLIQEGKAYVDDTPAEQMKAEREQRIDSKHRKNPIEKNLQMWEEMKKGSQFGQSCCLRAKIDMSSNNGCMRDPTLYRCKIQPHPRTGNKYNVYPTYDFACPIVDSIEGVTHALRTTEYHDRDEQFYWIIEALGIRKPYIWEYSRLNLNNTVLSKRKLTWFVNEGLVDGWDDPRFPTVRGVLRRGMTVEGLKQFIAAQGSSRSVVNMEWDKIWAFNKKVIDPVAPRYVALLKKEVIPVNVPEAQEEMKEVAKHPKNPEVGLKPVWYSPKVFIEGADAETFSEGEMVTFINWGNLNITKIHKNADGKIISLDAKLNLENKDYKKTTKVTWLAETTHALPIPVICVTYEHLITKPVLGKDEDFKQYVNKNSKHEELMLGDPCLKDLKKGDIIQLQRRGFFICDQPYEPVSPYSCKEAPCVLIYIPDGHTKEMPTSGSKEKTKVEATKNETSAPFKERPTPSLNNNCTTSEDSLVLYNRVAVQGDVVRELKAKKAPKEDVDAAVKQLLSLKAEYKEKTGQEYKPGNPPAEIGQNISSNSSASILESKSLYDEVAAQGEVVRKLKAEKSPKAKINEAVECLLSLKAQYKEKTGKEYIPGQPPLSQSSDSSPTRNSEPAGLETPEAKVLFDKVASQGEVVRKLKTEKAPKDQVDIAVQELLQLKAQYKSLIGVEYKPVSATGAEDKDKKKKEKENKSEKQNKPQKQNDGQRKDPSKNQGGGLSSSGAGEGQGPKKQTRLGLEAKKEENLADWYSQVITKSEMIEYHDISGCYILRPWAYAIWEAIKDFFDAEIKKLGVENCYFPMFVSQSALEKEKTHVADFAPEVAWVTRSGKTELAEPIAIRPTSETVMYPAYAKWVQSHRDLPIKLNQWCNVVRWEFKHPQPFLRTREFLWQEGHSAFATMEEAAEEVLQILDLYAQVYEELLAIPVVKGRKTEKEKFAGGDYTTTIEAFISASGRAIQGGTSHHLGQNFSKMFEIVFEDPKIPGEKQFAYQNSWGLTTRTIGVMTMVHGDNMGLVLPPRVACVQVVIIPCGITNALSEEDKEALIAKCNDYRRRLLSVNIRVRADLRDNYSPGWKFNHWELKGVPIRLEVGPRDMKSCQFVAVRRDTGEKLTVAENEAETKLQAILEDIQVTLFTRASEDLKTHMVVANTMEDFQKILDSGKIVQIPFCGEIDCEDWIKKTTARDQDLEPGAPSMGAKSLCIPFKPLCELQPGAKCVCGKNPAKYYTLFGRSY
T6 sequence (Q8I5R7 249-746): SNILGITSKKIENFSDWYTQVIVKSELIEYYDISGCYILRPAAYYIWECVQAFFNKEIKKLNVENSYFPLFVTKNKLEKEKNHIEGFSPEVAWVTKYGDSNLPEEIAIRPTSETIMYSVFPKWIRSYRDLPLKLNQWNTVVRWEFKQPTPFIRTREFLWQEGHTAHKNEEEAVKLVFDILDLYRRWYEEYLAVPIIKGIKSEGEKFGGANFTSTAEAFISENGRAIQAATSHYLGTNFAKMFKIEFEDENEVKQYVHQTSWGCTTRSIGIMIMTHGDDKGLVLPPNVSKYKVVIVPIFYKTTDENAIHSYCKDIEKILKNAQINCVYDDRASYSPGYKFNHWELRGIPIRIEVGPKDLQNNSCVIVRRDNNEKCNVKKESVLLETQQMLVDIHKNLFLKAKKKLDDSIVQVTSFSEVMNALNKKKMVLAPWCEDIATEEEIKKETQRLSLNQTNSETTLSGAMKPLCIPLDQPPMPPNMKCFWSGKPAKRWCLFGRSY

Molecule: O=C(CCCCCN1CCN2CCNC(=O)c3cccc(c3[O-])C(=O)NCCN(CCNC(=O)c3cccc(c3[O-])C1=O)CCN1CCNC(=O)c3cccc(c3[O-])C(=O)NCCN(CCNC(=O)c3cccc(c3[O-])C(=O)NCC1)CC2)NCCOCCOCCCCCCCl.[Tb+3] [Cora-1-Halo]
- log D [1]: −0.7

Molecule: (S)-2-amino-N-(N-(((2R,3S,4R,5R)-S-(6-amino-9H-purin-9-yl)-3,4-dihydroxytetrahydrofuran-2-yl)methyl)-N-(6-(2-(2-aminoethoxy)ethoxy)hexyl)sulfamoyl)-3-phenylpropanamide [MAT581]
- IC50 ([2]; phenylalanine 100 μM, ATP 200 μM): 206000 nM

Molecule: Cc1sc2c(c1C)C(c1ccc(Cl)cc1)=NC(CC(=O)NCCCOCCOCCOCCCNC(=O)[C@]13CCC(C)(C)C[C@H]1[C@H]1C(=O)C=C4[C@@]5(C)C=C(C#N)C(=O)C(C)(C)[C@@H]5CC[C@@]4(C)[C@]1(C)CC3)c1nnc(C)n1-2 (stereo partly drawn) [CDDO-JQ1, (4aS,6aR,6bS,8aR,12aS,14aR,14bS)-N-(1-(4-(4-chlorophenyl)-2,3,9-trimethyl-6H-thieno[3,2-f][1,2,4]triazolo[4,3-a][1,4]diazepin-6-yl)-2-oxo-7,10,13-trioxa-3-azahexadecan-16-yl)-11-cyano-2,2,6a,6b,9,9,12a-heptamethyl-10,14-dioxo-1,3,4,5,6,6a,6b,7,8,8a,9,10,12a,14,14a,14b-hexadecahydropicene-4a(2H)-carboxamide]
- fold less potent than CDDO (CDDO/CDDO-Me) ([3]; Assay-2): > 250 fold and > 500 fold
- inhibition at 100 µM [4]: < 5%
- IC50 [5]: 495000 nM
- IC50 [6]: 2680 nM
- IC50 [7]: 3370 nM
- Kd [7]: 1770 nM

Molecule: Nc1ncnc2c1ncn2[C@@H]1O[C@H](CNS(=O)(=O)NC(=O)[C@@H](N)Cc2ccccc2)[C@@H](O)[C@H]1O [PheSNA, (S)-amino-N-(N-(((2R,3S,4R,5R)-5-(6-amino-9H-purin-9-yl)-3,4-dihydroxytetrahydrofuran-2-y)methyl)sulfamoyl)-3-phenylpropanamide]
- IC50 [2]: 2000 nM
- IC50 [8]: 140 nM

Molecule: CC1(C)CC[C@]2(C(=O)NCCCOCCOCCOCCCNC(=S)Nc3ccc(-c4c5ccc(=O)cc-5oc5cc(O)ccc45)c(C(=O)O)c3)CC[C@]3(C)[C@H](C(=O)C=C4[C@@]5(C)C=C(C#N)C(=O)C(C)(C)[C@@H]5CC[C@]43C)[C@@H]2C1 [CDDO-FITC, 5-(3-(1-((4aS,6aR,6bS,8aR,12aS,14aR,14bS)-11-cyano-2,2,6a,6b,9,9,12a-heptamethyl-10,14-dioxo-1,3,4,5,6,6a,6b,7,8,8a,9,10,12a,14,14a,14b-hexadecahydropicen-4a(2H)-yl)-1-oxo-6,9,12-trioxa-2-azapentadecan-15-yl)thioureido)-2-(6-hydroxy-3-oxo-3H-xanthen-9-yl)benzoic acid]
- Kd ([3]; Kd of CDDO-FITC, saturation binding at fixed Cora-1-KL9 and Keap1, one-site model): 164 ± 37.1 nM
- Kd [7]: 164 nM

Molecule: O=C(CCCCCN1CCN2CCNC(=O)c3cc(Cl)cc(c3[O-])C(=O)NCCN(CCNC(=O)c3cc(Cl)cc(c3[O-])C1=O)CCN1CCNC(=O)c3cc(Cl)cc(c3[O-])C(=O)NCCN(CCNC(=O)c3cc(Cl)cc(c3[O-])C(=O)NCC1)CC2)NCCOCCOCCCCCCCl.[Tb+3] [Cora-2-Halo]
- log D [1]: 0.7

Molecule: Nc1ncnc2c1ncn2[C@@H]1O[C@H](CN(CCCCCCOCCOCCNC(=O)c2ccc(C(=O)O)c(-c3c4ccc(=O)cc-4oc4cc(O)ccc34)c2)S(=O)(=O)NC(=O)[C@@H]2CCCN2)[C@@H](O)[C@H]1O [MAT574, 4-((2-(2-((6-((N-(L-prolyl)sulfamoyl)(((2R,3S4R,5R)-5-(6-amino-9H-purin-9-yl)-3,4-dihydroxytetrahydrofuran-2-yl)methyl)amino)hexyl)oxy)ethoxy)ethyl)carbamoyl)-2-(6-hydroxy-3-oxo-3H-xanthen-9-yl)benzoic acid]
- TR-FRET signal [9]: specific TR-FRET signal
- Kd [10]: 2270 nM
- Kd [11]: 72.2 nM

Molecule: Nc1ncnc2c1ncn2[C@@H]1O[C@H](CN(CCCCCCOCCOCCNC(=O)c2ccc(C(=O)O)c(-c3c4ccc(=O)cc-4oc4cc(O)ccc34)c2)S(=O)(=O)NC(=O)[C@@H](N)CCC(=O)O)[C@@H](O)[C@H]1O [MAT579, 4-((2-(2-((6-((N-(L-glutamyl)sulfamoyl)(((2R,3S,4R,5R)-5-(6-amino-9H-purin-9-yl)-3,4-dihydroxytetrahydrofuran-2-yl)methyl)amino)hexyl)oxy)ethoxy)ethyl)carbamoyl)-2-(6-hydroxy-3-oxo-3H-xanthen-9-yl)benzoic acid]
- TR-FRET signal [9]: No TR-FRET signal was observed
